Experimental data published in article PMC8910920 (International Journal of Molecular Sciences, 2022).

Assays:
hM3 = target: T1, hM3 (Homo sapiens, UniProt P20309); assay: Radioligand binding assay, CHO cells, hM3; conditions: radioligand [3H]4-DMAP
T1 construct: host or cells: CHO
Method: To define whether β–lactam derivative RGM8-51 could bind to CGRPR, CB2 and M3 receptors, in vitro binding assays were performed, using CHO cell lines transfected with these receptors. The degree of binding was determined by using specific radioligands for each receptor (Table 2, footnote).
These studies were subcontracted to Eurofins-CEREP or Eurofins-PANLABS. Briefly, agonists and antagonist assays were performed in cell cultures overexpressing the corresponding channel (CHO: TRPV1 and TRPA1; HEK293: TRPV3 and ASIC3). In vitro pharmacology, cellular channel functional assays: the compound was prepared in assay buffer to the final concentration, 10 μM. […] The agonist assay was conducted on fluorimeter instruments where the test compound, vehicle controls, and reference agonist were added to the assay plate after a fluorescence baseline was established. […] For the antagonist assay, the compound was pre-incubated for five minutes at room temperature, and then challenged with the EC80 concentration of the reference agonist after establishment of a fluorescence baseline. […] Binding assay results are expressed as a percent of control specific binding. […] Aqueous solubility (μM) was determined by comparing the peak area of the principal peak in a calibration standard (200 μM) containing organic solvent (methanol/water, 60/40, v/v) with the peak area of the corresponding peak in a buffer sample. […]

[1] = Partition coefficient (Log D); format: physicochemical
Method: These studies were subcontracted to Eurofins-CEREP or Eurofins-PANLABS. Briefly, agonists and antagonist assays were performed in cell cultures overexpressing the corresponding channel (CHO: TRPV1 and TRPA1; HEK293: TRPV3 and ASIC3). In vitro pharmacology, cellular channel functional assays: the compound was prepared in assay buffer to the final concentration, 10 μM. The compound wells, reference agonist and background vehicle controls were prepared in DMSO at 0.3%. […] The reference agonist for each Ion Channel was included at Emax (the concentration where the reference agonist elicited a maximal response). The agonist assay was conducted on fluorimeter instruments where the test compound, vehicle controls, and reference agonist were added to the assay plate after a fluorescence baseline was established. […] For the antagonist assay, the compound was pre-incubated for five minutes at room temperature, and then challenged with the EC80 concentration of the reference agonist after establishment of a fluorescence baseline. […] Binding assay results are expressed as a percent of control specific binding. […] Aqueous solubility (μM) was determined by comparing the peak area of the principal peak in a calibration standard (200 μM) containing organic solvent (methanol/water, 60/40, v/v) with the peak area of the corresponding peak in a buffer sample. […] Permeability was measured in CACO-2 monolayers.

[2] = In vitro metabolism in human liver microsomes; format: in vitro ADME

T1 sequence (P20309 whole entry): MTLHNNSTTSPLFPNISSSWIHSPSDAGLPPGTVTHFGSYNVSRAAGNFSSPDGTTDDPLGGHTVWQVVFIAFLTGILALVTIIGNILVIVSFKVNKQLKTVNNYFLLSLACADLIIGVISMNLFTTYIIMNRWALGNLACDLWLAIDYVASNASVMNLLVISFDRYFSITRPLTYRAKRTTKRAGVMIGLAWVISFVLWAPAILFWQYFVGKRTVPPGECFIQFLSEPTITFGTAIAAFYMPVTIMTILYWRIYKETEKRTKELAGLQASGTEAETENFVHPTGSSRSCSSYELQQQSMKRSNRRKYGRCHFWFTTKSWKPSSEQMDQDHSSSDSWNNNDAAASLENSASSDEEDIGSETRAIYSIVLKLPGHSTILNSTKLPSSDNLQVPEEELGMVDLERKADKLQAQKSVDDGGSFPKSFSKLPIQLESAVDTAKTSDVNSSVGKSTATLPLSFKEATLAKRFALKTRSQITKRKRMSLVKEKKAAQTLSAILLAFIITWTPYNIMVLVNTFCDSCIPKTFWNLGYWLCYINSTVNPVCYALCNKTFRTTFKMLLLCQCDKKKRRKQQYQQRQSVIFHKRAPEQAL

C[C@@H]1C(=O)N(C[C@H](Cc2ccccc2)N(Cc2ccccc2)Cc2ccccc2)[C@]1(Cc1ccccc1)C(=O)OC(C)(C)C [RGM8-51, 4(S)-Benzyl-3S-methyl-4-(tert-butoxy)carbonyl-1-[(2′S-dibenzylamino-3′-phenyl)prop-1′-yl]-2-oxoazetidine]
Binding hM3 (%), inhibition of specific binding (hM3; 10 μM): did not show significant affinity | inhibition at 10 µM (hM3; read-out: Binding hM3 (%), inhibition of specific binding): -4.1 ± 3.1% | Log D [1]: 5.7 | logD ([1]; organic phase/aqueous buffer partition): 5.77 | Metabolism Clint [2]: 614 µL/min/mg | Metabolism t1/2 [2]: 11 min | microsomal CLint ([2]; human, liver microsomes): 614 µL/min/mg | half-life ([2]; human, liver microsomes, read-out: Metabolism t1/2): 11.3 min
